Tests used:
[1] = biological target: T1, Tyrosine-protein phosphatase non-receptor type 2 (Homo sapiens, UniProt P17706); assay: PTPN2 Biochemical Assay
T1 sequence (P17706 whole entry): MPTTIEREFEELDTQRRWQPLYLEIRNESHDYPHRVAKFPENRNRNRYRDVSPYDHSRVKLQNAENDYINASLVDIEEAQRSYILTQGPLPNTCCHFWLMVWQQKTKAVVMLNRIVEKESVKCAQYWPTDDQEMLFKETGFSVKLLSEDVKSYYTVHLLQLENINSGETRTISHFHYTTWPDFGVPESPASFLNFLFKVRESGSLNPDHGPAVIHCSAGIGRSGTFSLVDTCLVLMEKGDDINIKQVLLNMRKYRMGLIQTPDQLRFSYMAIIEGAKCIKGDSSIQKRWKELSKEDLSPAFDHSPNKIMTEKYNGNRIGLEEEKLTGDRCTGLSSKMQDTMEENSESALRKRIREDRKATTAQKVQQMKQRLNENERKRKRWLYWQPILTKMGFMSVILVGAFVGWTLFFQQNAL
Procedure: Test compounds were dissolved in DMSO, and 10-point serial 3-fold dilution series in DMSO were prepared in Echo Qualified 384-well Polypropylene Microplates (Labcyte, San Jose, CA) (top concentration 50 µM). Assay plates (384-well low volume black plates; Corning #3820, Corning, NY) were prepared by dispensing 50 nL of test compound, and DMSO (for high and low controls) by ECHO acoustic dispenser (Labcyte, San Jose CA). This was followed by addition of 5 μL of 0.2 nM human PTPN2 (1-387) solution (prepared in the assay buffer, 50 mM Tris pH 7.4, 150 mM NaCl, 0.01% Tween20, 0.5 mM dithiothreitol) to all wells except the low control. 5 μl of assay buffer was added into the low control, then the plate was incubated for 30 minutes at room temperature. Subsequently, 5 μl of 100 µM DiFMUP (6,8-difluoro-4-methylumbelliferyl phosphate) solution (prepared in assay buffer from 10 mM stock in DMSO) was added to the assay plate and incubated for 1 hour at room temperature. For detection, assay plates were read on SpectraMax Microplate Reader (Molecular Devices), with Excitation wavelength=360 nm and Emission wavelength=460 nm.

[2] = biological target: T2, Tyrosine-protein phosphatase non-receptor type 1 (Homo sapiens, UniProt P18031); assay: PTPN1 Biochemical Assay
T2 sequence (P18031 whole entry): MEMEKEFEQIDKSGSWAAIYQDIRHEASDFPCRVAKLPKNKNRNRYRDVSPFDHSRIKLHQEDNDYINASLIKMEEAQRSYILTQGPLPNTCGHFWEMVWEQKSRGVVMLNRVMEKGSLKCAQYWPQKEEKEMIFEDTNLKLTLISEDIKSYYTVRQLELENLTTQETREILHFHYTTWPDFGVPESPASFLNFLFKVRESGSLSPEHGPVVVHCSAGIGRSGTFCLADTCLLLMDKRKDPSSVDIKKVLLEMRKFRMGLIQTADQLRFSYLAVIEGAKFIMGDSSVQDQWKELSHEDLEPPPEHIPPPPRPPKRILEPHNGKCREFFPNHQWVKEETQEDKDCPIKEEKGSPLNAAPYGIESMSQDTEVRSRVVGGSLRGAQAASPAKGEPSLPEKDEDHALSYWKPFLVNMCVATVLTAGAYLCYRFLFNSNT
Procedure: Test compounds were dissolved in DMSO, and 10-point serial 3-fold dilution series in DMSO were prepared in Echo Qualified 384-well Polypropylene Microplates (Labcyte, San Jose, CA) (top concentration 50 µM). […] 5 μl of assay buffer was added into the low control. The plate was incubated for 30 minutes at room temperature. Subsequently, 5 μl of 100 µM DiFMUP (6,8-difluoro-4-methylumbelliferyl phosphate) solution (prepared in assay buffer from 10 mM stock in DMSO) was added to the assay plate and incubated for 1 hour at room temperature. For detection, assay plates were read on SpectraMax Microplate Reader (Molecular Devices), with Excitation wavelength=360 nm and Emission wavelength=460 nm.

For Cc1ccc(COc2cc(C(N)=O)cc3c(Br)c(C(F)(F)P(=O)(O)O)sc23)cc1C [US20250059220, Compound 358], the IC50 [1] was 54.8 nM and the IC50 [2] was 106 nM.

In the case of CS(=O)(=O)CCCOc1cc(C(N)=O)cc2c(C3CC3)c(C(F)(F)P(=O)(O)O)sc12 [US20250059220, Compound 458], the IC50 [1] is reported as 68.1 nM and the IC50 [2] is reported as 78.6 nM.

From BindingDB's records for patent US20250059220 (Merck Sharp & Dohme, 2025)
